Assay results reported in patent US12285450B2, “Lactiplantibacillus plantarum effectively inhibiting multi-drug-resistant Klebsiella pneumoniae and use thereof” (priority 2023, dated 2025).
Where two headings read alike, the source gives them in different places.

Tested on: Klebsiella pneumoniae ZFM4
Assay: Antibiotic resistance of ZFM4 by disk diffusion method
Format: cell-based
Settings: for antibiotic resistance of ZFM4 (in words): disk diffusion method
Experimental: The antibiotic susceptibility test disk was purchased from Hangzhou Microbial Reagent Co., Ltd., including amoxicillin, cefuroxime, gentamycin, erythromycin, vancomycin, tetracycline, penicillin, ciprofloxacin, streptomycin, and chloramphenicol.
The antibiotic resistance of Klebsiella pneumoniae ZFM4 was evaluated by disk diffusion method. 100 μL of the second-generation bacterial culture of Klebsiella pneumoniae ZFM4 was coated on LB solid medium and the antibiotic susceptibility test disk was placed on the plate. After aerobically incubation at 37° C. for 48 hrs, the diameter of the inhibition zone was measured. […] That is, Klebsiella pneumoniae ZFM4 had multiple drug resistance.

## CN(C)[C@@H]1C(O)=C(C(N)=O)C(=O)[C@@]2(O)C(O)=C3C(=O)c4c(O)cccc4[C@@](C)(O)[C@H]3C[C@@H]12 [Tetracycline]
Klebsiella pneumoniae, ZFM4, Tetracycline disk 30 μg/tablet, 37° C., 48 hrs, read-out: Drug resistance evaluation result
  zone of inhibition at 30 µg/disc: > 15 mm

## CC[C@H]1OC(=O)[C@H](C)[C@@H](O[C@H]2C[C@@](C)(OC)[C@@H](O)[C@H](C)O2)[C@H](C)[C@@H](O[C@@H]2O[C@H](C)C[C@H](N(C)C)[C@H]2O)[C@](C)(O)C[C@@H](C)C(=O)[C@H](C)[C@@H](O)[C@]1(C)O [Erythromycin]
Klebsiella pneumoniae, ZFM4, Erythromycin disk 15 μg/tablet, 37° C., 48 hrs, read-out: Drug resistance evaluation result
  zone of inhibition at 15 µg/disc: < 13 mm
  antibiotic resistance of ZFM4 (in words): resistant

## CN[C@H](CC(C)C)C(=O)N[C@H]1C(=O)N[C@@H](CC(N)=O)C(=O)N[C@H]2C(=O)N[C@H]3C(=O)N[C@H](C(=O)N[C@H](C(=O)O)c4cc(O)cc(O)c4-c4cc3ccc4O)[C@H](O)c3ccc(c(Cl)c3)Oc3cc2cc(c3O[C@@H]2O[C@H](CO)[C@@H](O)[C@H](O)[C@H]2O[C@H]2C[C@](C)(N)[C@H](O)[C@H](C)O2)Oc2ccc(cc2Cl)[C@H]1O [Vancomycin]
Klebsiella pneumoniae, ZFM4, 48 h, read-out: Drug resistance evaluation result
  zone of inhibition at 30 µg/disc: < 14 mm
  antibiotic resistance of ZFM4 (in words): resistant

## [H]/N=C(/N)N[C@H]1[C@H](O)[C@@H](O)[C@H](O[C@@H]2O[C@@H](C)[C@](O)(C=O)[C@H]2O[C@@H]2O[C@@H](CO)[C@H](O)[C@@H](O)[C@@H]2NC)[C@@H](N/C(N)=N\[H])[C@@H]1O [Streptomycin]
Klebsiella pneumoniae, ZFM4, Streptomycin disk 10 μg/tablet, 37° C., 48 hrs, read-out: Drug resistance evaluation result
  zone of inhibition at 10 µg/disc: 11 to 15 mm
  antibiotic resistance of ZFM4 (in words): moderately resistant

## O=C(N[C@H](CO)[C@H](O)c1ccc([N+](=O)[O-])cc1)C(Cl)Cl [Chloramphenicol]
Klebsiella pneumoniae, ZFM4, Chloramphenicol disk 30 μg/tablet, 37° C., 48 hrs, read-out: Drug resistance evaluation result
  zone of inhibition at 30 µg/disc: < 12 mm
  antibiotic resistance of ZFM4 (in words): resistant

## O=C(O)c1cn(C2CC2)c2cc(N3CCNCC3)c(F)cc2c1=O [Ciprofloxacin]
Klebsiella pneumoniae, ZFM4, Ciprofloxacin disk 5 μg/tablet, 37° C., 48 hrs, read-out: Drug resistance evaluation result
  zone of inhibition at 5 µg/disc: 15 to 21 mm
  antibiotic resistance of ZFM4 (in words): moderately resistant

## Gentamicin
Gentamicin disk 10 μg/tablet, 37° C., 48 hrs
  Drug resistance evaluation result: R (≤12)
  antibiotic resistance of ZFM4 (in words): resistant

## Penicillin
Penicillin disk 10 μg/tablet, 37° C., 48 hrs
  Drug resistance evaluation result: R (≤14)
  antibiotic resistance of ZFM4 (in words): resistant

## CO/N=C(\C(=O)N[C@@H]1C(=O)N2C(C(=O)O)=C(COC(N)=O)CS[C@H]12)c1ccco1 [Cefuroxime]
Klebsiella pneumoniae, ZFM4, Cefuroxime disk 30 μg/tablet, 37° C., 48 hrs, read-out: Drug resistance evaluation result
  zone of inhibition at 30 µg/disc: < 10 mm
  antibiotic resistance of ZFM4 (in words): resistant

## CC1(C)S[C@@H]2[C@H](NC(=O)[C@H](N)c3ccc(O)cc3)C(=O)N2[C@H]1C(=O)O [Amoxicillin]
Klebsiella pneumoniae, ZFM4, Amoxicillin disk 25 μg/tablet, 37° C., 48 hrs, read-out: Drug resistance evaluation result
  zone of inhibition at 25 µg/disc: < 13 mm
  antibiotic resistance of ZFM4 (in words): resistant
